Assay results from paper PMC6507131, “Evaluation of the novel liver micronucleus assay using formalin-fixed tissues” (Genes and Environment, 2019).
“Also recorded” adds a separate entry of the source. Structures can show the parent of a compound that is named as a salt.

Tests used:
liver [1] = conditions: in vivo; cited from earlier work
hepatocytes (liver) [2] = conditions: rat, in vivo, cited from earlier work; for RDLMN test result (liver micronucleus induction), collagenase digestion method: po
[3] = tested on: hepatocytes of formalin-fixed liver tissues; conditions: rat, in vivo; for RDLMN test result (liver micronucleus induction), formalin-fixed method: po
hepatocytes (liver) [4] = experiment: Repeated-dose liver micronucleus (RDLMN) assay, collagenase digestion method; format: in vivo, rat; conditions: comparison between the two methods
bone marrow = tested on: bone marrow; design: method as in PMID 9707102; conditions: cited from earlier work
[5] = design: method as in PMID 15979392; conditions: cited from earlier work
liver [6] = tested on: liver; design: method as in PMID 25892619, PMID 25892626; conditions: previous study; cited from earlier work

Row | SMILES | Hepatocarcinogen / non-hepatocarcinogen classification (liver [1]) | RDLMN test result (liver micronucleus induction), collagenase digestion method (hepatocytes (liver) [2]) | RDLMN test result (liver micronucleus induction), formalin-fixed method [3] | also measured
1 | CC(=O)Nc1ccc2c(c1)Cc1ccccc1-2 [2-AAF, 2-Acetylaminofluorene] | Hepatocarcinogen | positive | positive | 
2 | CC(C)[N+](=O)[O-] [2-NP, 2-Nitropropane] |  | positive | positive | 
3 | CCOC(=O)C(C)(C)Oc1ccc(Cl)cc1 [CFB, Clofibrate] | Hepatocarcinogen |  |  | 
4 | O.O=P1(N(CCCl)CCCl)NCCCO1 (stereo not shown) [CP, Cyclophosphamide H2O] | Non-hepatocarcinogen | negative | negative | 
5 | CN(C)c1ccc(N=Nc2ccccc2)cc1 [DAB, p-Dimethylaminoazobenzene] | Hepatocarcinogen | positive | positive | 
6 | CN(C)N=O [DMN, Dimethylnitrosoamine] | Hepatocarcinogen | positive | positive | Frequency of MNHEPs by the formalin-fixed method compared with the collagenase digestion method [3]: Relatively higher frequencies of MNHEPs
7 | C[C@H]1C(=O)O[C@@H]2CCN3CC=C(COC(=O)[C@](C)(O)[C@]1(C)O)[C@H]23 [MCT, Monocrotaline] | Hepatocarcinogen | positive | positive | 
8 | COS(C)(=O)=O [MMS, Methyl methanesulfonate] | Non-hepatocarcinogen | positive | positive | 
9 | CN(C)CCN(Cc1cccs1)c1ccccn1 [MP, Methapyrilene HCl] | Hepatocarcinogen |  |  | 
10 | CCCN(CCC)N=O [NDPA, N-Nitrosodipropylamine] | Hepatocarcinogen | positive | positive | Frequency of MNHEPs by the formalin-fixed method compared with the collagenase digestion method [3]: Relatively higher frequencies of MNHEPs
11 | O=NN1CCOCC1 [NMOR, N-Nitrosomorpholine] | Hepatocarcinogen | positive | positive | 
12 | O=NN1CCCC1 [NPYR, N-Nitrosopyrrolidine] | Hepatocarcinogen |  |  | Micronucleus induction by the collagenase digestion method compared with the formalin-fixed method (hepatocytes (liver) [4]): the same trend; also recorded: higher micronucleus induction
13 | c1ccc2ncccc2c1 [QUN, Quinoline] |  | positive | positive | 
14 | Oc1ccc2ccccc2c1N=Nc1ccccc1 [Sudan I, Sudan I (C.I.solvent yellow 14)] | Hepatocarcinogen | negative | positive | liver carcinogenicity (liver [1]): positive; short-term bone marrow micronucleus assay result (bone marrow): positive; Dose dependence of liver micronucleus induction, collagenase digestion method (hepatocytes (liver) [2]): a tendency, though slight, toward a dose-dependent increase; in vitro chromosome aberration test result [5]: negative; Histopathological finding in the liver (liver [6]): remarkable HEP hypertrophy
15 | CC(=N)S [TAA, Thioacetamide] | Hepatocarcinogen | negative | positive | Frequency of MNHEPs by the formalin-fixed method compared with the collagenase digestion method [3]: comparable
